Tests used:
CerS5 [1] = target: T1, CerS5 (Homo sapiens (Human), UniProt Q8N5B7); assay: N-acylation by CerS5 using labeled palmitoyl CoA, relative to sphinganine; format: biochemical; conditions: for Rate of N-Acylation / Rate of N-Acylation (either pmol/mg/min or % of control): CerS5, labeled palmitoyl CoA; for Rate of N-Acylation: n=1-2; for N-Acylation using 14C labeled palmitoyl CoA: Yes/No, CerS5; for Rate of N-Acylation (% of control): control sphinganine = 100% acylation; for Rate of N-Acylation (either pmol/mg/min or % of control): unit not given
Procedure: (§1) N-acylation was determined by incubating homogenates with 15 μM dhSo, 20 μM defatted BSA and 0.01 uCi C16-[14C] acyl-CoA/46 μM C16 acyl-CoA in a final volume of 250 μl.
An additional assay determined whether the sphingosine analogs presented herein are N-acylated by CerS5 expressed, relative to sphinganine (control; 100% acylation), using labeled palmitoyl CoA (n=1-2).

P. aeruginosa strain 762 = P. aeruginosa strain 762 killing assay; format: cell-based; conditions: Pseudomonas aeruginosa; P. aeruginosa strain 762, 2 hours at 37° C., colonies counted
Procedure: Incubation of bacteria with the sphingosine analogs presented herein was carried out as follows. P. aeruginosa strain 762 was grown in LB medium at 37° C. until the early logarithmic phase (OD550 of 0.2). Bacteria were diluted in PBS (without Ca^+2 and Mg^+2) to a concentration of 5×10^3 CFU/ml. Stock solutions of sphingolipid analogs in 5 mM in 7.5% n-octyl-β-D-glucopyranoside (OGP) or in dimethyl sulfoxide (DMSO) were prepared by sonication and warming to 40° C. The sphingosine analogs presented herein were added to the bacteria (0.05-200 μM in 0.075% OGP or 1% DMSO). Bacteria were incubated with the sphingosine analogs presented herein for 2 hours at 37° C., and 200 μl of a bacteria solution plated on LB agar plates, incubated overnight at 37° C., and colonies counted.
The ability of the sphingo sine analogs presented herein to kill Pseudomonas aeruginosa in vitro, and based on the data shown below, concluded that the SPH analogs presented herein are highly efficient in killing bacteria. Compounds 791598 and 791577 were used as activity assay control references.
FIGS. 1A-D present comparative plots, showing the results of the P. aeruginosa strain 762 killing assay, conducted for sphingosine analogs presented herein.

CerS5 [2] = target: T1, CerS5; assay: Inhibition of ceramide synthesis (CerS5) measured in vitro; format: biochemical
Procedure: (§2) Ceramide synthase assays were carried out as follows. Cell homogenates were incubated with 15 μM NBD-SPH, 20 μM defatted bovine serum albumin, and 50 μM fatty acyl CoA in a 20 μl reaction volume at 37° C. Reactions were terminated by addition of chloroform/methanol (1:2, v/v) and lipids extracted. Lipids were dried under N2, re-suspended in chloroform/methanol (9:1, v/v) and separated by TLC using chloroform/methanol/2M NH4OH (40:10:1, v/v/v) as the developing solvent. NBD-labelled lipids were visualized using a Typhoon 9410 variable mode imager and quantified by ImageQuantTL (GE Healthcare, Chalfont St Giles, UK).

[3] = test system: ceramide synthases (CerS); assay: N-acylation by ceramide synthases using 14C labeled CoA; format: biochemical; conditions: 14C labeled CoA as a substrate; raw data not shown
Procedure: as §1
To determine whether the sphingosine analogs presented herein can be metabolized by ceramide synthases (CerS—natural sphingosine is a substrate for CerS), their N-acylation using ^14C labeled CoA as a substrate was examined.

CerS5 [4] = target: T1, CerS5; assay: CerS5 activity/inhibition assay using NBD sphinganine; format: biochemical; conditions: read-out: CerS5 activity (percentage of control); for remaining activity at 25 µM: 25 μM compound; for remaining activity at 50 µM: 50 μM compound; for remaining activity at 75 µM: 75 μM compound
Procedure: as §2
Table 4 below presents the results for the CerS5 activity/inhibition assay using NBD sphinganine (given as percentage of control).

P. aeruginosa = conditions: injected immediately prior to infection, or an hour after infection; cited from earlier work

T1 sequence (Q8N5B7 whole entry, species assumed): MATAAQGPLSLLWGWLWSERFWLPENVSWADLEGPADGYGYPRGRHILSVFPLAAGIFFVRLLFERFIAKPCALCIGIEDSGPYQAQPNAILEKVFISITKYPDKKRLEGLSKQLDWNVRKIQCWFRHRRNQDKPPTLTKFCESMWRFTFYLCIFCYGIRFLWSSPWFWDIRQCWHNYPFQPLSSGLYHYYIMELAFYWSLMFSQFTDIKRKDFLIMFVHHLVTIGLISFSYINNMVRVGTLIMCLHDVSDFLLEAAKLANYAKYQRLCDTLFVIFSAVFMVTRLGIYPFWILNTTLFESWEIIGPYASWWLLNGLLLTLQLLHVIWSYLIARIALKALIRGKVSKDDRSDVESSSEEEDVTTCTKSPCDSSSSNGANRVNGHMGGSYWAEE

Row | SMILES | Rate of N-Acylation (CerS5 [1]) [pmol/mg/min] | N-Acylation using 14C labeled palmitoyl CoA (CerS5 [1]) | Rate of N-Acylation (% of control) (CerS5 [1]) | EC50 (P. aeruginosa strain 762) [nM] | CerS5 activity (% of control) (CerS5 [2]) | Rate of N-Acylation (either pmol/mg/min or % of control) (CerS5 [1]) | N-acylation by CerS (substrate or not) [3] | remaining activity at 25 µM (CerS5 [4]) [%] | remaining activity at 50 µM (CerS5 [4]) [%] | remaining activity at 75 µM (CerS5 [4]) [%] | P. aeruginosa infection in CF mice (P. aeruginosa)
1 | CCCCCCCCCCCCCCC[C@H](O)[C@H](CO)N(C)C [Compound 791577] | 4.7 ± 2.4 | No | (0.89% of control) | > 2500 | 92.9 ± 28.7 % of control |  |  |  |  |  | 
2 | CCCCCCCCCCCCCCC[C@H](O)[C@H](CN)N(C)C [Compound 791578] | 55.0 ± 6.0 | No | (10.39% of control) | 1440 ± 760 | 90.2 ± 16.4 % of control |  |  |  |  |  | 
3 | CCCCCCCCCCCCCCC[C@@H](N)[C@H](CN)N(C)C [Compound 791579] | 4.1 ± 3.0 | No | (0.77% of control) | 580 ± 140 | 69.2 ± 8.9 % of control |  |  |  |  |  | 
4 | CCCCCCCCCCCCCCC[C@H](N)[C@H](CN)N(C)C [Compound 791580] | 6.1 ± 2.6 | No | (1.15% of control) | 390 ± 60 | 58.1 ± 20.1 % of control |  |  |  |  |  | 
5 | CCCCCCCCCC/C=C/CCC(N)(O)CO (centres unmarked) [Compound 791581] | 4.2 ± 4.5 | No | (0.79% of control) | 1090 ± 310 | 71.5 ± 19.0 % of control |  |  |  |  |  | 
6 | CCCCCCCCCC/C=C/CCC(N)(N)CN [Compound 791582] | 14.4 ± 7.7 | No | (2.72% of control) | 540 ± 180 | 68.2 ± 10.4 % of control |  |  |  |  |  | 
7 | CCCCCCCCCCCCCCC[C@@H](O)[C@H](N)CN [Compound 791597] | 18.8 ± 12.3 | No | (3.55% of control) | 890 ± 230 | 125.0 ± 31.1 % of control |  |  |  |  |  | 
8 | CCCCCCCCCCCCCCC[C@H](N)[C@H](N)CN [Compound 791598] | 10.4 ± 10.1 | No | (1.97% of control) | 990 ± 10 | 111.3 ± 34.9 % of control |  |  |  |  |  | 
9 | CCCCCCCC/C=C\CCCCCCCC[C@@H](O)[C@H](N)CO [Compound 791601] | 144.6 ± 51.7 | Yes | (27.32% of control) | 420 ± 50 | 88.5 ± 10.1 % of control |  |  |  |  |  | 
10 | CCCCC/C=C\C/C=C\CCCCCCCC[C@H](O)[C@@H](N)CO [Compound 791602] | 146.9 ± 0.0 | Yes | (27.76% of control) |  | 57.3 ± 12.2 % of control |  |  |  |  |  | 
11 | CCCCCCCCCCCCCCNC(=O)[C@H](N)CN [Compound 791993] |  |  |  | 940 ± 322 |  | 0.98 ± 0.09 pmol/mg/min or % of control |  |  |  |  | 
12 | CCCCCCCCCCCCCCNC(=O)[C@@H](N)CN [Compound 791994] |  | Yes |  | 1310 ± 400 |  | 25.42 ± 6.97 pmol/mg/min or % of control |  |  |  |  | 
13 | CCCCCCCCCCCCc1ccc(NC(=O)[C@@H](N)CN)cc1 [Compound 791995] |  | No |  | 870 ± 91 |  | 0.14 ± 0.004 pmol/mg/min or % of control | not substrates for CerS | 107 ± 24 | 119 ± 20.9 | 109 ± 26.9 | 
14 | CCCCCCCCCCCCc1ccc(NC(=O)[C@H](N)CN)cc1 [Compound 791996] |  | No |  | 810 ± 240 |  | 0.02 ± 0.003 pmol/mg/min or % of control | not substrates for CerS | 96.7 ± 12.8 | 104 ± 21.2 | 105 ± 13.9 | 
15 | CCCCCCCCCCCCCCc1ccc(NC(=O)C(N)CN)cc1 (centres unmarked) [Compound 792205] |  | No |  | 610 ± 200 |  | 5.21 ± 1.33 pmol/mg/min or % of control |  | 98.5 ± 18.1 | 92.7 ± 19 | 59.4 ± 12.1 | 
16 | CCCCCCCCCCCCCCCCc1ccc(NC(=O)[C@@H](N)CN)cc1 [Compound 792206] |  | No |  | 1120 ± 180 |  | 3.78 ± 0.24 pmol/mg/min or % of control |  | 76.6 ± 12.8 |  | 125 ± 37.4 | 
17 | CCCCCCCCCCCCCCCCNC(=O)C(N)CN (centres unmarked) [Compound 792208] |  |  |  | 720 ± 260 |  | 2.81 ± 1.06 pmol/mg/min or % of control |  | 114 ± 21.4 | 81.9 ± 7.15 | 72.7 ± 5.76 | 
18 | CCCCCCCCCCCCCCCCCCNC(=O)C(N)CN (centres unmarked) [Compound 792209] |  | No |  | > 2500 |  |  |  |  |  |  | 
19 | CCCCCCCCCCCCc1ccc(NC(=O)C(O)CN)cc1 (centres unmarked) [Compound 792211] |  | Yes |  | 260 ± 90 |  | 114.21 ± 3.11 pmol/mg/min or % of control |  | 163 ± 37.9 | 73.5 ± 8.98 | 49.8 ± 26.6 | 
20 | CCCCCCCCCCCCc1ccc(NC(=O)[C@@H](N)CCN)cc1 [Compound 792212] |  | No |  | 160 ± 70 |  | 2.77 ± 0.65 pmol/mg/min or % of control |  | 163 ± 82.3 | 138 ± 59 | 119 ± 32.8 | 
21 | CCCCCCCCc1ccc(CCC(N)(CO)CO)cc1 [FTY720, fingolimod] |  |  |  |  |  |  |  |  |  |  | completely blocked
22 | CCCCCCCCCCCCCCC[C@@H](O)[C@@H](N)CO [sphinganine, reference compound] |  |  |  |  | 100 ± 0 % of control |  |  |  |  |  | 
23 | CCCCCCCCCCCCC/C=C/[C@@H](O)[C@@H](N)CO [sphingosine] |  |  |  |  |  |  |  |  |  |  | completely blocked
